Reference: patent US20250069757A1, “METHOD OF PREDICTING ADAS-COG SCORE” (WisTa Laboratories Ltd., priority 2021, published 2025)

Experiments:
Alzheimer's disease [1] = assay: phase III clinical trials (TRx-237-005 and TRx-237-015) for Alzheimer's disease; type: in vivo, patients; details: 8, 150, 200 or 250 mg/day; both trials
Text: Data from a phase III clinical trials (TRx-237-005 and TRx-237-015) for Alzheimer's disease was obtained. These clinical trials involved 1162 patients. Before the trials began, each patient's baseline measurements were collected, which included the patient's sex, age, baseline ADAS-Cog and mini-mental state examination (MMSE) score.
Patients were subsequently categorised into those with ‘low’ and ‘high’ plasma levels using a threshold based on the lower limit of quantitation of the assay on Day 1. […] Additionally, each patient entered the trial either already using the standard care of therapy or not. This yielded D=4 possible combinations: “low-using”, “low-none”, “high-using” and “high-none”. The trial spanned 5 visits with 13 weeks in between each visit. At each visit t, every patient i's progressive ADAS-Cog score, Yti∈ ? , was measured and recorded.

Alzheimer's disease [2] = details: cited from earlier work
[3] = group with 'high' plasma levels, threshold based on lower limit of quantitation of the assay on Day 1

For CN(C)c1ccc2c(c1)Sc1cc(N(C)C)ccc1N2.CS(=O)(=O)O.CS(=O)(=O)O [LMTM], the dose-response (Alzheimer's disease [1]) is given as “lack of dose-response”, the “concentration-response relationships for steady-state plasma levels” value (Alzheimer's disease [2]; 8 mg/day range) is given as “steep concentration-response relationships” and the “differences in brain atrophy” value (Alzheimer's disease [2]; [3]) is given as “highly significant differences”. The “differences in cognitive decline” value (Alzheimer's disease [2]; [3]) was “highly significant differences”.
